# PubChem BioAssay AID1963872 (Molecular Pharmacology Branch, DTP, NCI, 2024)
# System: KRAS patient-derived spheroids with HUVEC/MSC, viability
# Assay: Anticancer human tumor 519858-162-T-J1-PDC patient-derived colon adenocarcinoma cell line growth inhibition [KRAS2]
# Details: for IC50: curve of first compound; for viability, T/C: stronger effect = lower value
# Summary of the method: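 Combination screen of spheroid viability in tumor-cell co-cultures with endothelial (HUVEC) and mesenchymal stem cell stroma. Each agent was tested in half-log dilutions, topping at clinical Cmax or at 10 microM without a known Cmax.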
# [1] = second compound 0.1 µM, first compound 0.0316 µM
# [2] = second compound 0.1 µM, first compound 0.1 µM
# [3] = second compound 0.1 µM, first compound 0.316 µM
# [4] = second compound 0.1 µM, first compound 1 µM
# [5] = second compound 0.1 µM, first compound 3.16 µM
# [6] = second compound 0.1 µM, first compound 10 µM
# [7] = second compound 0.316 µM, first compound 0.0316 µM
# [8] = second compound 0.316 µM, first compound 0.1 µM
# [9] = second compound 0.316 µM, first compound 0.316 µM
# [10] = second compound 0.316 µM, first compound 1 µM
# [11] = second compound 0.316 µM, first compound 3.16 µM
# [12] = second compound 0.316 µM, first compound 10 µM
# [13] = second compound 1 µM, first compound 0.0316 µM
# [14] = second compound 1 µM, first compound 0.1 µM
# [15] = second compound 1 µM, first compound 0.316 µM
# [16] = second compound 1 µM, first compound 1 µM
# [17] = second compound 1 µM, first compound 3.16 µM
# [18] = second compound 1 µM, first compound 10 µM
# [19] = second compound 3.16 µM, first compound 0.0316 µM
# [20] = second compound 3.16 µM, first compound 0.1 µM
# [21] = second compound 3.16 µM, first compound 0.316 µM
# [22] = second compound 3.16 µM, first compound 1 µM
# [23] = second compound 3.16 µM, first compound 3.16 µM
# [24] = second compound 3.16 µM, first compound 10 µM
# [25] = second compound 10 µM, first compound 0.0316 µM
# [26] = second compound 10 µM, first compound 0.1 µM
# [27] = second compound 10 µM, first compound 0.316 µM
# [28] = second compound 10 µM, first compound 1 µM
# [29] = second compound 10 µM, first compound 3.16 µM
# [30] = second compound 10 µM, first compound 10 µM
# [31] = second compound 0.1 µM, first compound 0.01 µM
# [32] = second compound 0.316 µM, first compound 0.01 µM
# [33] = second compound 1 µM, first compound 0.01 µM
# [34] = second compound 3.16 µM, first compound 0.01 µM
# [35] = second compound 10 µM, first compound 0.01 µM
# 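Also: compound exposure lasted seven days before readout.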
# 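For viability, T/C in this document: 100% = DMSO vehicle control viability.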
SMILES,IC50 (second compound 0.1 µM) [nM],IC50 (second compound 0.316 µM) [nM],IC50 (second compound 1 µM) [nM],IC50 (second compound 3.16 µM) [nM],IC50 (second compound 10 µM) [nM],"viability, T/C [1] [%]","viability, T/C [2] [%]","viability, T/C [3] [%]","viability, T/C [4] [%]","viability, T/C [7] [%]","viability, T/C [8] [%]","viability, T/C [9] [%]","viability, T/C [10] [%]","viability, T/C [13] [%]","viability, T/C [14] [%]","viability, T/C [15] [%]","viability, T/C [16] [%]","viability, T/C [19] [%]","viability, T/C [20] [%]","viability, T/C [21] [%]",further results
CC(C)NCC(C(=O)N1CCN(c2ncnc3c2C(C)CC3O)CC1)c1ccc(Cl)cc1 (stereo not given) + C=CC(=O)N1CCN(c2nc(=O)n(-c3c(C)ccnc3C(C)C)c3nc(-c4c(O)cccc4F)c(F)cc23)C(C)C1,> 10000,> 10000,> 10000,> 10000,> 10000,95.1,103,65.2,69,95.3,83.3,86.5,91.9,68.7,105,96.9,102,92.8,90.3,87.5,"viability, T/C [5]: 111%; viability, T/C [6]: 93.2%; viability, T/C [11]: 99.1%; viability, T/C [12]: 119%; viability, T/C [17]: 77.8%; viability, T/C [18]: 72.7%; viability, T/C [22]: 67%; viability, T/C [23]: 82.7%; viability, T/C [24]: 87.5%; viability, T/C [25]: 85.9%; viability, T/C [26]: 73.8%; viability, T/C [27]: 64.1%; viability, T/C [28]: 73.9%; viability, T/C [29]: 90.8%; viability, T/C [30]: 75%"
CC1COCCN1c1cc(-c2ccnn2C)c2ccnc(-c3ccn[nH]3)c2n1 (stereo not given) + C=CC(=O)N1CCN(c2nc(=O)n(-c3c(C)ccnc3C(C)C)c3nc(-c4c(O)cccc4F)c(F)cc23)C(C)C1,1820,2100,838,> 3160,340,102,89.3,82.7,61.6,94,78.4,87.9,69.8,91.8,124,78.5,50.1,97.9,89.4,80.9,"viability, T/C [31]: 115%; viability, T/C [5]: 38.1%; viability, T/C [32]: 87.4%; viability, T/C [11]: 39.1%; viability, T/C [33]: 116%; viability, T/C [17]: 39.6%; viability, T/C [34]: 110%; viability, T/C [22]: 68.6%; viability, T/C [23]: 48.8%; viability, T/C [35]: 70.4%; viability, T/C [25]: 87%; viability, T/C [26]: 61.8%; viability, T/C [27]: 56%; viability, T/C [28]: 21.3%; viability, T/C [29]: 20.3%"
CCN1CCN(Cc2ccc(Nc3ncc(F)c(-c4cc(F)c5nc(C)n(C(C)C)c5c4)n3)nc2)CC1 + C=CC(=O)N1CCN(c2nc(=O)n(-c3c(C)ccnc3C(C)C)c3nc(-c4c(O)cccc4F)c(F)cc23)C(C)C1,> 1000,> 1000,> 1000,742,265,71.9,72.4,78.6,59.3,79.2,62.2,66,49.2,83.6,60.4,72.8,50.4,69.3,73.9,64.6,"viability, T/C (second compound 0.1 µM, first compound 0.00316 µM): 83%; viability, T/C [31]: 67.4%; viability, T/C (second compound 0.316 µM, first compound 0.00316 µM): 98.6%; viability, T/C [32]: 96.5%; viability, T/C (second compound 1 µM, first compound 0.00316 µM): 61.9%; viability, T/C [33]: 111%; viability, T/C (second compound 3.16 µM, first compound 0.00316 µM): 84.2%; viability, T/C [34]: 93.7%; viability, T/C [22]: 44.6%; viability, T/C (second compound 10 µM, first compound 0.00316 µM): 109%; viability, T/C [35]: 97.7%; viability, T/C [25]: 51.8%; viability, T/C [26]: 75.7%; viability, T/C [27]: 60.5%; viability, T/C [28]: 23.4%"
CCNC(=O)CC1N=C(c2ccc(Cl)cc2)c2cc(OC)ccc2-n2c(C)nnc21 (stereo not given) + C=CC(=O)N1CCN(c2nc(=O)n(-c3c(C)ccnc3C(C)C)c3nc(-c4c(O)cccc4F)c(F)cc23)C(C)C1,2660,2380,2560,2210,2680,120,97.1,74.8,70.3,102,95.2,79.8,54.7,76,74.6,70.4,79.6,93.9,86.3,101,"viability, T/C [5]: 42.1%; viability, T/C [6]: 37.1%; viability, T/C [11]: 53%; viability, T/C [12]: 29.7%; viability, T/C [17]: 44.2%; viability, T/C [18]: 28.3%; viability, T/C [22]: 78.2%; viability, T/C [23]: 37.6%; viability, T/C [24]: 29.4%; viability, T/C [25]: 93.9%; viability, T/C [26]: 78.5%; viability, T/C [27]: 97.6%; viability, T/C [28]: 84.7%; viability, T/C [29]: 44.1%; viability, T/C [30]: 25.4%"
